Experimental data: US9974761B2, “Medications for deposition on biological surfaces” (The Procter & Gamble Company, priority 2014, dated 2018)

Tests used:
human TRPM8 = assay: TRPM8 Protocol-FLIPR Assay (intracellular Ca2+); type: cell-based; settings: for TRPM8 Time Course Activity 50 sec % of WS5 / TRPM8 Time Course Activity 3 min % of WS5 / TRPM8 Time Course Activity 5 min % of WS5 / TRPM8 Time Course Activity 10 min % of WS5: vs 30 uM WS-5; for TRPM8 Time Course Activity 50 sec: fluorescence at 50 sec; for TRPM8 Time Course Activity 3 min: fluorescence at 3 min; for TRPM8 Time Course Activity 5 min: fluorescence at 5 min; for TRPM8 Time Course Activity 10 min: fluorescence at 10 min
[1] = Sensation reported by panelists; type: in vivo; settings: perceived sensation, in words

Structure (SMILES): CC(C)[C@@H]1CC[C@@H](C)C[C@H]1C(=O)NCC(NC(=O)[C@@H](C)N)c1ccccc1 (single isomer, unassigned) [Compound 28 fraction 2]
- TRPM8 Time Course Activity 50 sec % of WS5 (human TRPM8; dose 6.1 nM): 19.3%
- TRPM8 Time Course Activity 3 min % of WS5 (human TRPM8; dose 6.1 nM): 46.0%
- TRPM8 Time Course Activity 5 min % of WS5 (human TRPM8; dose 6.1 nM): 50.3%
- TRPM8 Time Course Activity 10 min % of WS5 (human TRPM8; dose 6.1 nM): 50.6%
- TRPM8 Time Course Activity 50 sec (human TRPM8; dose 6.1 nM): 1944.0
- TRPM8 Time Course Activity 3 min (human TRPM8; dose 6.1 nM): 4350.0
- TRPM8 Time Course Activity 5 min (human TRPM8; dose 6.1 nM): 4763.0
- TRPM8 Time Course Activity 10 min (human TRPM8; dose 6.1 nM): 4844.0
- TRPM8 Time Course Activity 50 sec % of WS5 (human TRPM8; dose 12.2 nM): 18.0%
- TRPM8 Time Course Activity 3 min % of WS5 (human TRPM8; dose 12.2 nM): 57.6%
- TRPM8 Time Course Activity 5 min % of WS5 (human TRPM8; dose 12.2 nM): 65.7%
- TRPM8 Time Course Activity 10 min % of WS5 (human TRPM8; dose 12.2 nM): 71.1%
- TRPM8 Time Course Activity 50 sec (human TRPM8; dose 12.2 nM): 1814.0
- TRPM8 Time Course Activity 3 min (human TRPM8; dose 12.2 nM): 5446.0
- TRPM8 Time Course Activity 5 min (human TRPM8; dose 12.2 nM): 6224.0
- TRPM8 Time Course Activity 10 min (human TRPM8; dose 12.2 nM): 6809.0
- TRPM8 Time Course Activity 50 sec % of WS5 (human TRPM8; dose 24.4 nM): 23.0%
- TRPM8 Time Course Activity 3 min % of WS5 (human TRPM8; dose 24.4 nM): 68.2%
- TRPM8 Time Course Activity 5 min % of WS5 (human TRPM8; dose 24.4 nM): 76.3%
- TRPM8 Time Course Activity 10 min % of WS5 (human TRPM8; dose 24.4 nM): 82.0%
- TRPM8 Time Course Activity 50 sec (human TRPM8; dose 24.4 nM): 2311.0
- TRPM8 Time Course Activity 3 min (human TRPM8; dose 24.4 nM): 6441.0
- TRPM8 Time Course Activity 5 min (human TRPM8; dose 24.4 nM): 7226.0
- TRPM8 Time Course Activity 10 min (human TRPM8; dose 24.4 nM): 7848.0
- TRPM8 Time Course Activity 50 sec % of WS5 (human TRPM8; dose 48.8 nM): 24.9%
- TRPM8 Time Course Activity 3 min % of WS5 (human TRPM8; dose 48.8 nM): 81.7%
- TRPM8 Time Course Activity 5 min % of WS5 (human TRPM8; dose 48.8 nM): 89.6%
- TRPM8 Time Course Activity 10 min % of WS5 (human TRPM8; dose 48.8 nM): 97.0%
- TRPM8 Time Course Activity 50 sec (human TRPM8; dose 48.8 nM): 2502.0
- TRPM8 Time Course Activity 3 min (human TRPM8; dose 48.8 nM): 7721.0
- TRPM8 Time Course Activity 5 min (human TRPM8; dose 48.8 nM): 8488.0
- TRPM8 Time Course Activity 10 min (human TRPM8; dose 48.8 nM): 9289.0
- TRPM8 Time Course Activity 50 sec % of WS5 (human TRPM8; dose 97.6 nM): 49.8%
- TRPM8 Time Course Activity 3 min % of WS5 (human TRPM8; dose 97.6 nM): 106.9%
- TRPM8 Time Course Activity 5 min % of WS5 (human TRPM8; dose 97.6 nM): 113.5%
- TRPM8 Time Course Activity 10 min % of WS5 (human TRPM8; dose 97.6 nM): 118.8%
- TRPM8 Time Course Activity 50 sec (human TRPM8; dose 97.6 nM): 5007.0
- TRPM8 Time Course Activity 3 min (human TRPM8; dose 97.6 nM): 10101.0
- TRPM8 Time Course Activity 5 min (human TRPM8; dose 97.6 nM): 10747.0
- TRPM8 Time Course Activity 10 min (human TRPM8; dose 97.6 nM): 11375.0
- TRPM8 Time Course Activity 50 sec % of WS5 (human TRPM8; dose 195 nM): 72.4%
- TRPM8 Time Course Activity 3 min % of WS5 (human TRPM8; dose 195 nM): 121.5%
- TRPM8 Time Course Activity 5 min % of WS5 (human TRPM8; dose 195 nM): 126.8%
- TRPM8 Time Course Activity 10 min % of WS5 (human TRPM8; dose 195 nM): 129.8%
- TRPM8 Time Course Activity 50 sec (human TRPM8; dose 195 nM): 7287.0
- TRPM8 Time Course Activity 3 min (human TRPM8; dose 195 nM): 11477.0
- TRPM8 Time Course Activity 5 min (human TRPM8; dose 195 nM): 12007.0
- TRPM8 Time Course Activity 10 min (human TRPM8; dose 195 nM): 12427.0
- TRPM8 Time Course Activity 50 sec % of WS5 (human TRPM8; dose 390 nM): 87.1%
- TRPM8 Time Course Activity 3 min % of WS5 (human TRPM8; dose 390 nM): 126.5%
- TRPM8 Time Course Activity 5 min % of WS5 (human TRPM8; dose 390 nM): 129.9%
- TRPM8 Time Course Activity 10 min % of WS5 (human TRPM8; dose 390 nM): 136.0%
- TRPM8 Time Course Activity 50 sec (human TRPM8; dose 390 nM): 8766.0
- TRPM8 Time Course Activity 3 min (human TRPM8; dose 390 nM): 11955.0
- TRPM8 Time Course Activity 5 min (human TRPM8; dose 390 nM): 12301.0
- TRPM8 Time Course Activity 10 min (human TRPM8; dose 390 nM): 13026.0
- TRPM8 Time Course Activity 50 sec % of WS5 (human TRPM8; dose 781 nM): 103.7%
- TRPM8 Time Course Activity 3 min % of WS5 (human TRPM8; dose 781 nM): 136.4%
- TRPM8 Time Course Activity 5 min % of WS5 (human TRPM8; dose 781 nM): 138.3%
- TRPM8 Time Course Activity 10 min % of WS5 (human TRPM8; dose 781 nM): 147.4%
- TRPM8 Time Course Activity 50 sec (human TRPM8; dose 781 nM): 10428.0
- TRPM8 Time Course Activity 3 min (human TRPM8; dose 781 nM): 12887.0
- TRPM8 Time Course Activity 5 min (human TRPM8; dose 781 nM): 13091.0
- TRPM8 Time Course Activity 10 min (human TRPM8; dose 781 nM): 14116.0
- TRPM8 Time Course Activity 50 sec % of WS5 (human TRPM8; dose 1.563 uM): 112.6%
- TRPM8 Time Course Activity 3 min % of WS5 (human TRPM8; dose 1.563 uM): 134.0%
- TRPM8 Time Course Activity 5 min % of WS5 (human TRPM8; dose 1.563 uM): 136.8%
- TRPM8 Time Course Activity 10 min % of WS5 (human TRPM8; dose 1.563 uM): 145.1%
- TRPM8 Time Course Activity 50 sec (human TRPM8; dose 1.563 uM): 11331.0
- TRPM8 Time Course Activity 3 min (human TRPM8; dose 1.563 uM): 12663.0
- TRPM8 Time Course Activity 5 min (human TRPM8; dose 1.563 uM): 12954.0
- TRPM8 Time Course Activity 10 min (human TRPM8; dose 1.563 uM): 13892.0
- TRPM8 Time Course Activity 50 sec % of WS5 (human TRPM8; dose 3.125 uM): 116.9%
- TRPM8 Time Course Activity 3 min % of WS5 (human TRPM8; dose 3.125 uM): 134.4%
- TRPM8 Time Course Activity 5 min % of WS5 (human TRPM8; dose 3.125 uM): 136.6%
- TRPM8 Time Course Activity 10 min % of WS5 (human TRPM8; dose 3.125 uM): 145.1%
- TRPM8 Time Course Activity 50 sec (human TRPM8; dose 3.125 uM): 11757.0
- TRPM8 Time Course Activity 3 min (human TRPM8; dose 3.125 uM): 12699.0
- TRPM8 Time Course Activity 5 min (human TRPM8; dose 3.125 uM): 12937.0
- TRPM8 Time Course Activity 10 min (human TRPM8; dose 3.125 uM): 13890.0
- TRPM8 Time Course Activity 50 sec % of WS5 (human TRPM8; dose 6.25 uM): 121.6%
- TRPM8 Time Course Activity 3 min % of WS5 (human TRPM8; dose 6.25 uM): 133.8%
- TRPM8 Time Course Activity 5 min % of WS5 (human TRPM8; dose 6.25 uM): 136.2%
- TRPM8 Time Course Activity 10 min % of WS5 (human TRPM8; dose 6.25 uM): 144.0%
- TRPM8 Time Course Activity 50 sec (human TRPM8; dose 6.25 uM): 12236.0
- TRPM8 Time Course Activity 3 min (human TRPM8; dose 6.25 uM): 12644.0
- TRPM8 Time Course Activity 5 min (human TRPM8; dose 6.25 uM): 12891.0
- TRPM8 Time Course Activity 10 min (human TRPM8; dose 6.25 uM): 13793.0
- TRPM8 Time Course Activity 50 sec % of WS5 (human TRPM8; dose 12.5 uM): 123.4%
- TRPM8 Time Course Activity 3 min % of WS5 (human TRPM8; dose 12.5 uM): 132.3%
- TRPM8 Time Course Activity 5 min % of WS5 (human TRPM8; dose 12.5 uM): 135.2%
- TRPM8 Time Course Activity 10 min % of WS5 (human TRPM8; dose 12.5 uM): 143.6%
- TRPM8 Time Course Activity 50 sec (human TRPM8; dose 12.5 uM): 12415.0
- TRPM8 Time Course Activity 3 min (human TRPM8; dose 12.5 uM): 12501.0
- TRPM8 Time Course Activity 5 min (human TRPM8; dose 12.5 uM): 12801.0
- TRPM8 Time Course Activity 10 min (human TRPM8; dose 12.5 uM): 13755.0
- TRPM8 Time Course Activity 50 sec % of WS5 (human TRPM8; dose 25 uM): 120.4%
- TRPM8 Time Course Activity 3 min % of WS5 (human TRPM8; dose 25 uM): 126.9%
- TRPM8 Time Course Activity 5 min % of WS5 (human TRPM8; dose 25 uM): 129.7%
- TRPM8 Time Course Activity 10 min % of WS5 (human TRPM8; dose 25 uM): 137.2%
- TRPM8 Time Course Activity 50 sec (human TRPM8; dose 25 uM): 12110.0
- TRPM8 Time Course Activity 3 min (human TRPM8; dose 25 uM): 11993.0
- TRPM8 Time Course Activity 5 min (human TRPM8; dose 25 uM): 12284.0
- TRPM8 Time Course Activity 10 min (human TRPM8; dose 25 uM): 13140.0
- TRPM8 Time Course Activity 50 sec % of WS5 (human TRPM8; dose 50 uM): 125.7%
- TRPM8 Time Course Activity 3 min % of WS5 (human TRPM8; dose 50 uM): 130.7%
- TRPM8 Time Course Activity 5 min % of WS5 (human TRPM8; dose 50 uM): 133.5%
- TRPM8 Time Course Activity 10 min % of WS5 (human TRPM8; dose 50 uM): 137.6%
- TRPM8 Time Course Activity 50 sec (human TRPM8; dose 50 uM): 12648.0
- TRPM8 Time Course Activity 3 min (human TRPM8; dose 50 uM): 12352.0
- TRPM8 Time Course Activity 5 min (human TRPM8; dose 50 uM): 12644.0
- TRPM8 Time Course Activity 10 min (human TRPM8; dose 50 uM): 13179.0
- TRPM8 Time Course Activity 50 sec % of WS5 (human TRPM8; dose 100 uM): 121.7%
- TRPM8 Time Course Activity 3 min % of WS5 (human TRPM8; dose 100 uM): 125.2%
- TRPM8 Time Course Activity 5 min % of WS5 (human TRPM8; dose 100 uM): 127.5%
- TRPM8 Time Course Activity 10 min % of WS5 (human TRPM8; dose 100 uM): 128.3%
- TRPM8 Time Course Activity 50 sec (human TRPM8; dose 100 uM): 12246.0
- TRPM8 Time Course Activity 3 min (human TRPM8; dose 100 uM): 11826.0
- TRPM8 Time Course Activity 5 min (human TRPM8; dose 100 uM): 12074.0
- TRPM8 Time Course Activity 10 min (human TRPM8; dose 100 uM): 12287.0
- sensation (cooling, warming, burning) [1]: did not provide a cooling response
